The values that follow come from patent publication US6288077A, “2,3-methano-amino acid compounds” (Adir et Compagnie, priority 1999, dated 2001).

Where a name gives a salt, the structure may show the parent alone.

Assay [1] has as its system dog plasma. Briefly: Anti-coagulant activity after administration per os to the dog, thrombin time (TT). The class given is in vivo. The following applies: oral. As to the method: (§1) Anti-coagulant Activity After Administration Per os to the Dog
(§2) Male or female dogs weighing 11-28 kg are treated by the oral route with the products of the invention (5 or 10 mg/kg). The coagulation times (TT, ACT) are determined in dog plasma samples 10 min. before and 30 min., 1 hour, 2 hours, 4 hours and 6 hours after administration of the products. The measurements of the coagulation times are carried out as described in Example 81.
(§3) Under the conditions of our experiments, the TT is of the order of 19 seconds and the ACT of the order of 18 seconds.
(§4) The Table 4 summarizes the results obtained.

The test system of assay [2] is dog plasma. The assay can be described thus: Anti-coagulant activity after administration per os to the dog, activated cephalin time (ACT). The class given is in vivo. The following applies: oral. As to the method: as §1, §2, §3, §4
Assay [3] has as its system human plasma. Briefly: Activated cephalin time (ACT) in human plasma, anti-coagulant activity. It is filed as biochemical. As to conditions: human plasma deficient in platelets, 2 min incubation at 37° C., PTT Automate Cephalin. As to the method:
(§5) Anti-coagulant Activity, Measurement of Thrombin Time and Activated […] Man In order to evaluate the anti-coagulant activity of the compounds of the invention, the thrombin time (TT) and the activated cephalin time (ACT) were determined in human plasma samples. An ST4 coagulometer (Diagnostica Stago, France) was used. A lyophilised plasma, deficient in platelets (Stago), is taken up in distilled water. The TT is obtained using the reagent Prest Thrombin and the ACT using the reagent PTT Automate […]. […] The activity of an antagonist is evaluated by its capacity to prolong the TT and the ACT relative to the control. The effect of the inhibitors is expressed by the concentration in μM that doubles the coagulation time (Ctt2).

The subject of assay [4] is human plasma. The assay can be described thus: Thrombin time (TT) in human plasma, anti-coagulant activity. It is filed as biochemical. As to conditions: human plasma deficient in platelets, 2 min incubation at 37° C., Prest Thrombin. As to the method:
as §5

The target in assay [5] is T1, human thrombin (Homo sapiens, UniProt P00734).
T1 construct: purchased Sigma
Briefly: Inhibition of human thrombin (fibrin formation from purified human fibrinogen). It is filed as biochemical. The following applies: human thrombin 0.7 nM, human fibrinogen 4 mM, pH 7.4, 20° C., 10 min preincubation. As to the method:
Inhibition of Thrombin and of Fibrinolysis Serine Proteases […] The fibrin formed by the thrombin or by the paranitroanilide released by the action of the serine protease is measured spectrophotometrically at 405 nm after from 15 to 30 minutes' reaction at 20° C.

`Cl.Cl.N=C(N)c1ccc(CNC(=O)[C@]23C[C@H]2CCN3C(=O)[C@H](N)CC2CCCCC2)cc1` [Example 2, 1-[(2R)-3-Cyclohexylalanyl]-N-(4-amidinobenzyl)-(2S,3R)-2,3-methano-prolinamide dihydrochloride]: the “TT increase (maximal; number of times by which the initial time is increased)” value (“TT increase” below) in assay [1] (5 mg/kg) was 3.8 times. In addition, the “ACT increase (maximal; number of times by which the initial time is increased)” value (from here on “ACT increase”) in assay [2] (5 mg/kg) was found to be 1.4 times. The “ACT Ctt2 (concentration that doubles the coagulation time)” value (“ACT Ctt2” below) in assay [3] was determined as 0.52 µM. Further, the “TT Ctt2 (concentration that doubles the coagulation time)” value (“TT Ctt2” for short) in assay [4] worked out at 0.07 µM. In assay [5], half-maximal inhibition (IC50) was put at 7.9 nM.
In the case of `Cl.N=C(N)c1ccc(CNC(=O)[C@]23C[C@H]2CCN3C(=O)[C@@H](CC2CCCCC2)NCC(=O)O)cc1` [Example 3, 1-[N-Carboxymethyl-(2R)-3-cyclohexylalanyl]-N-(4-amidinobenzyl)-(2S,3R)-2,3-methano-prolinamide hydrochloride], the “TT increase” value in assay [1] (5 mg/kg) turned out to be 8.4 times. The “ACT increase” value in assay [2] (5 mg/kg) was 2.1 times. Further, in assay [3], the “ACT Ctt2” value was found to be 0.56 µM. The “TT Ctt2” value in assay [4] was 0.06 µM. In assay [5], this molecule displayed an IC50 of 5.3 nM.
As to `Cl.N=C(N)c1ccc(CNC(=O)[C@]23C[C@H]2CCN3C(=O)[C@@H](Cc2ccccc2)NS(=O)(=O)Cc2ccccc2)cc1` [Example 9, 1-[N-Benzylsulphonyl-(2R)-3-phenylalanyl]-N-(4-amidinobenzyl)-(2S,3R)-2,3-methano-prolinamide hydrochloride], in assay [3], the “ACT Ctt2” value came out at 0.86 µM. Moreover, in assay [4], the “TT Ctt2” value was determined as 0.20 µM. For the same molecule, the IC50 in assay [5] amounted to 6 nM.
Consider `Cl.Cl.N=C(N)c1ccc(CNC(=O)[C@]23C[C@H]2CCN3C(=O)[C@H](N)C(c2ccccc2)c2ccccc2)cc1` [Example 11, 1-[(2R)-3,3-Diphenylalanyl]-N-(4-amidinobenzyl)-(2S,3R)-2,3-methano-prolinamide dihydrochloride], for which the “TT increase” value in assay [1] (5 mg/kg) is 5.6 times. Moreover, in assay [2] (5 mg/kg), the “ACT increase” value is 2.3 times. The “ACT Ctt2” value in assay [3] is 0.59 µM. Also, in assay [4], the “TT Ctt2” value stood at 0.06 µM. Further, in assay [5], the IC50 is 4 nM.
As to `Cl.Cl.N=C(N)c1ccc(CNC(=O)[C@]23C[C@H]2CCN3C(=O)[C@H](N)C(C2CCCCC2)C2CCCCC2)cc1` [Example 13, 1-[(2R)-3,3-Dicyclohexylalanyl]-N-(4-amidinobenzyl)-(2S,3R)-2,3-methano-prolinamide dihydrochloride], the “ACT Ctt2” value in assay [3] came out at 2.30 µM. For the same molecule, the “TT Ctt2” value in assay [4] is 0.18 µM. In addition, the IC50 in assay [5] was 1.2 nM.
For `Cl.N=C(N)c1ccc(CNC(=O)[C@]23C[C@H]2CCN3C(=O)[C@H](NCC(=O)O)C(C2CCCCC2)C2CCCCC2)cc1` [Example 14, 1-[N-Carboxymethyl-(2R)-3,3-dicyclohexylalanyl]-N-(4-amidinobenzyl)-(2S,3R)-2,3-methano-prolinamide hydrochloride], in that order: 2.20 µM, 0.19 µM and 1 nM.
Regarding `N=C(N)c1ccc(CNC(=O)[C@]23C[C@H]2CCN3C(=O)[C@H](NS(=O)(=O)Cc2ccccc2)C2CCCCC2)cc1` [Example 16, 1-[N-Benzylsulphonyl-(2R)-cyclohexylglycyl]-N-(4-amidinobenzyl)-(2S,3R)-2,3-methano-prolinamide hydrochloride], in assay [3], the “ACT Ctt2” value worked out at 0.42 µM. The “TT Ctt2” value in assay [4] came out at 0.09 µM. In assay [5], this molecule yielded an IC50 of 1 nM.
With `N=C(N)c1ccc(CNC(=O)[C@]23C[C@H]2CCN3C(=O)[C@H](NCC(=O)O)C2CCCCC2)cc1` [Example 17, 1-[N-Carboxymethyl-(2R)-cyclohexylglycyl]-N-(4-amidinobenzyl)-(2S,3R)-2,3-methano-prolinamide hydrochloride], in assay [1] (5 mg/kg), the “TT increase” value amounted to 16.0 times. Besides, the “ACT increase” value in assay [2] (5 mg/kg) amounted to 3.7 times. Also, the “ACT Ctt2” value in assay [3] was found to be 0.86 µM. The “TT Ctt2” value in assay [4] stood at 0.11 µM. This molecule also had an IC50 in assay [5] of 28 nM.
The matching figures for `Cl.N=C(N)c1ccc(CNC(=O)[C@]23C[C@H]2CCCN3C(=O)[C@@H](CC2CCCCC2)NCC(=O)O)cc1` [Example 24, 1-[N-Carboxymethyl-(2R)-3-cyclohexylalanyl]-N-(4-amidinobenzyl)-(2S,3R)-2,3-methano-homoprolinamide hydrochloride]: 6.7 times, 1.2 times, 0.58 µM, 0.03 µM and 2.3 nM.
On to `CCOC(=O)CN[C@H](CC1CCCCC1)C(=O)N1CCC[C@@H]2C[C@@]21C(=O)NCc1ccc(C(=N)N)cc1.Cl.Cl` [Example 25, 1-[N-Ethoxycarbonylmethyl-(2R)-3-cyclohexylalanyl]-N-(4-amidinobenzyl)-(2S,3R)-2,3-methano-homoprolinamide dihydrochloride], for which the “ACT Ctt2” value in assay [3] turned out to be 0.45 µM. Further, the “TT Ctt2” value in assay [4] was determined as 0.08 µM. In assay [5], the IC50 turned out to be 2 nM.
In the case of `Cc1nc(N)ccc1CNC(=O)[C@]12C[C@H]1CCCN2C(=O)[C@H](N)CC1CCCCC1.Cl.Cl` [Example 28, 1-[(2R)-3-Cyclohexylalanyl]-N-[(6-amino-2-methyl-3-pyridyl)methyl]-(2S,3R)-2,3-methano-homoprolinamide dihydrochloride], the “TT increase” value in assay [1] (10 mg/kg) was 6.2 times. Besides, the “ACT increase” value in assay [2] (10 mg/kg) was 1.8 times. Moreover, in assay [3], the “ACT Ctt2” value is 2.30 µM. For the same molecule, the “TT Ctt2” value in assay [4] amounted to 0.31 µM. In addition, the IC50 in assay [5] is 26 nM.
The matching figures for `CN[C@H](CC1CCCCC1)C(=O)N1CCC[C@@H]2C[C@@]21C(=O)NCc1ccc(N)nc1C.Cl.Cl` [Example 29, 1-[N-Methyl-(2R)-3-cyclohexylalanyl]-N-[(6-amino-2-methyl-3-pyridyl)methyl]-(2S,3R)-2,3-methano-homoprolinamide dihydrochloride]: 6.2 times, 1.7 times, 2.80 µM, 0.46 µM and 44 nM.
With `CCCCN[C@H](CC1CCCCC1)C(=O)N1CCC[C@@H]2C[C@@]21C(=O)NCc1ccc(N)nc1C.Cl.Cl` [Example 31, 1-[N-Butyl-(2R)-3-cyclohexylalanyl]-N-[(6-amino-2-methyl-3-pyridyl)methyl]-(2S,3R)-2,3-methano-homoprolinamide dihydrochloride], in assay [3], the “ACT Ctt2” value is 1.30 µM. The “TT Ctt2” value in assay [4] is 0.17 µM. Besides, the half-maximal inhibitory concentration (IC50) in assay [5] was 5.1 nM.
For the molecule `Cc1nc(N)ccc1CNC(=O)[C@]12C[C@H]1CCCN2C(=O)[C@@H](CC1CCCCC1)NCC(=O)O.Cl.Cl` [Example 32, 1-[N-Carboxymethyl-(2R)-3-cyclohexylalanyl]-N-[(6-amino-2-methyl-3-pyridyl)methyl]-(2S,3R)-2,3-methano-homoprolinamide dihydrochloride], the “ACT Ctt2” value in assay [3] was 1.09 µM. In assay [4], the “TT Ctt2” value is 0.12 µM. In assay [5], this molecule returned an IC50 of 7.1 nM.
For the molecule `CCOC(=O)CN[C@H](CC1CCCCC1)C(=O)N1CCC[C@@H]2C[C@@]21C(=O)NCc1ccc(N)nc1C.Cl.Cl` [Example 33, 1-[N-Ethoxycarbonylmethyl-(2R)-3-cyclohexylalanyl]-N-[(6-amino-2-methyl-3-pyridyl)methyl]-(2S,3R)-2,3-methano-homoprolinamide dihydrochloride], the “TT increase” value in assay [1] (5 mg/kg) is recorded as 7.1 times. Further, in assay [2] (5 mg/kg), the “ACT increase” value amounted to 1.5 times. In addition, the “ACT Ctt2” value in assay [3] was found to be 1.10 µM. For the same molecule, in assay [4], the “TT Ctt2” value was determined as 0.11 µM. The same molecule displayed an IC50 in assay [5] of 5.1 nM.
In turn, `Cc1nc(N)ccc1CNC(=O)[C@]12C[C@H]1CCCN2C(=O)[C@H](N)C(C1CCCCC1)C1CCCCC1` [Example 63, 1-[(2R)-3,3-Dicyclohexylalanyl]-N-[(6-amino-2-methyl-3-pyridyl)methyl]-(2S,3R)-2,3-methano-homoprolinamide dihydrochloride] returned an IC50 in assay [5] of 8.8 nM.

In general, IC50 refers to the concentration needed to halve the response being measured.
